We go through three compounds from patent publication US20250041307A1, “Uses of Bicyclic Compounds for the Treatment of Diseases” (Athira Pharma, Inc., priority 2021, published 2025).

One data set concerns MDCK cells. Briefly: Cell scattering behavior assay. Type of data set: cell-based. Set-up: key: − indicates that the compound failed to significantly promote cell scattering behavior; + indicates maximum potency at or above 100 nM; ++ indicates maximum potency at or above 10 nM; +++ indicates maximum potency at or above 1 nM; ++++ indicates maximum potency at or above 0.1 nM. The settings on record: with 5 ng/mL HGF, 24 hours, normalized particle count compared to HGF treatment alone. The method in brief:
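MDCK cells starved 2 h in serum-free DMEM, then treated 24 h at 37 °C with compounds plus 5 ng/mL HGF. Cells were ethanol-fixed, WGA488-stained and imaged. Scattering was scored as particle count normalized to stained area, with activity taken as a statistical increase in normalized particle count over HGF alone.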

Data set [1] can be described thus: Parallel artificial membrane permeability assay (PAMPA). It counts as in vitro ADME. The settings on record: PBS, room temperature for 5 hours, 200 uM in donor well. On the procedure:
Bioavailable drugs must permeate the cellular membranes of the lining of the digestive tract. To estimate the penetrability of exemplary compounds, the in vitro parallel artificial membrane permeability assay (PAMPA) was utilized.
Test compounds must have a standard curve in the final read plate to determine partitioned concentration of each drug. A 6-point standard curve was prepared for each compound from 0 to 200 μM in phosphate-buffered saline (PBS).
Test compound solution (300 μL in PBS) was added to the donor (bottom) well of the PAMPA plate in 5 replicates and PBS vehicle (200 μL) was added to the acceptor (top) wells of appropriate wells to match the loading of the donor plate. The bottom and top of the PAMPA plates were then sandwiched together. The PAMPA plates were then incubated at room temperature for 5 hours. After incubation, 150 μL of donor solution was added to a UV compatible plate containing the corresponding standard curve. 150 μL of acceptor well solution was added adjacent to the corresponding standard curve and donor well samples for that compound. The plate was then read using a UV plate reader.
Permeability and membrane retention were then calculated based on the following formulas:
where: • A=filter area (0.3 cm^2); • VD=donor well volume (0.3 mL); • VA=acceptor well volume (0.2 mL); • t=incubation time (seconds); • CA(t)=compound concentration in acceptor well at time t; • CD(t)=compound concentration in donor well at time t; and
where: • CD(t), VD, CA(t), and VA are as defined for equation 1, and • C0=initial concentration in donor well (200 uM).

A short description of data set [2]: Turbidimetric solubility assay. It counts as physicochemical. The settings on record: PBS (diluted from 10 mM DMSO stock), aqueous buffer, kinetic from dmso stock, 37° C. for 2 hours, dilution series 3 to 300 μM. On the procedure:
Aqueous solubility is a critical drug property that helps to predict bioavailability. Generally, compounds with aqueous solubility <100 μg/ml are poor drugs.
To assess a compound's solubility by turbidity, test compounds were first dissolved in organic solvent (DMSO) at a concentration of 10 mM. This compound solution was then diluted in aqueous solvent (PBS) in a dilution series from 3 to 300 μM in a 96-well assay plate. Solutions were incubated at 37° C. for 2 hours.
In wells with test compounds over their solubility limit, the compound will precipitate, effectively blocking the passage of light and thus increasing the absorbance signal of UV light at a wavelength of 620 nm. Compounds were considered insoluble at a tested concentration if turbidity raises the absorbance more than 10% above control reads.

In a further data set the test system is HGF/MET system. Put plainly: Phospho-MET ELISA. On the set-up: key: − indicates that the compound failed to significantly augment MET phosphorylation; + indicates maximum potency at or above 100 nM; ++ indicates maximum potency at or above 10 nM; +++ indicates maximum potency at or above 1 nM; ++++ indicates maximum potency at or above 0.1 nM. It counts as cell-based. The settings on record: HEK293 cells; with 1 ng/mL recombinant HGF; 15 minutes; augmentation of MET phosphorylation (pMET ELISA). The method in brief: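 Serum-starved (≥8 h) HEK293 cells treated with compound plus 1 ng/mL recombinant HGF for 15 min at 37° C in triplicate, then lysed in RIPA. Equal protein (50–100 μg, BCA-normalized) run in pMET sandwich ELISA, A450 read. Responses scaled 1–10 between 1 ng/mL and 10 ng/mL HGF means, using peak efficacy.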

Consider `CCC(C)CN1CC2N(Cc3ccc(O)cc3)CCC(=O)N2[C@@H](C)C1=O` (some centres unmarked) [Compound 3a], for which the Potency entry in the data set with MDCK cells and in the data set on HGF/MET system was “−” throughout. For the same compound, in data set [1], the Papp (in general, a coefficient for how fast a substance crosses the barrier) at 5 h, 200 uM was under 2 ×10⁻⁶ cm/s. In addition, the solubility (usually the concentration that dissolves in the medium under given conditions) at 2 h in data set [2] is over 300 µM.
As for `CC1C(=O)N(CCCC(F)(F)F)CC2N(Cc3ccc(OC(F)F)cc3)CCC(=O)N12` (centres unmarked) [Compound 37], the solubility at 2 h in data set [2] was over 300 µM. Moreover, the Potency result in the data set on HGF/MET system was “−”.
For `CC1C(=O)N(CCC(F)(F)F)CC2N(Cc3ccc(OC(F)F)cc3)CCC(=O)N12` (centres unmarked) [Compound 52] the same measures were over 100 µM and “−”.
